Data reported in US20130183323A1, “TARGETED ANTIBIOTIC AND ANTIMICROBIAL TREATMENTS FOR PERSONALIZED ADMINISTRATION” (priority 2011, published 2013).
Values after ≈ are worked out from the molar mass of the structure shown.

Columns and labels:
Assay in all cases: minimum inhibition concentration (MIC) for tetracycline
Assay type in all cases: cell-based
Details in all cases: tetracycline resistant isolate from aquaculture environment
Enterococcus sp. 17fT4 = tested on: Enterococcus sp. 17fT4
Procedure: (§1) Study 1. The variability of antibiotic resistant (ART) bacteria in responding to drug treatment was evaluated using tetracycline resistant isolates in brain heart infusion (BHI) broth. […] All strains were isolated from aquaculture environment. The bacteria in different titer were grown in BHI with different concentration of tetracycline conjugated to antibody against Enterococcus.

Enterococcus sp. 18fT3 = tested on: Enterococcus sp. 18fT3
Procedure: as §1

[1] = tested on: Plesiomonas shigelloides 17iT21
Procedure: as §1

Compound `CN(C)[C@@H]1C(O)=C(C(N)=O)C(=O)[C@@]2(O)C(O)=C3C(=O)c4c(O)cccc4[C@@](C)(O)[C@H]3C[C@@H]12` [tetracycline] has an MIC (Enterococcus sp. 17fT4) of 128 µg/mL (≈ 288 µM), an MIC (Enterococcus sp. 18fT3) of 512 µg/mL (≈ 1150 µM) and an MIC [1] of 64 µg/mL (≈ 144 µM).
